In US20140121235A1, “Method for Treating S6K-Overexpressing Cancers” (Rush University Medical Center, priority 2012, published 2014):

How the values were obtained:
Format in all cases: cell-based
[1] = test system: AKT^S473 and S6K1^T389 phosphorylation; experiment: Western blot of PI-3 kinase pathway phosphorylation in A375 cells; conditions: A375 cells, dose-dependent
Procedure: (§1) A375 cells seeded in a 6-well plate were starved in DMEM medium containing 0.5% FBS for 2 hr and treated with the indicated concentration of A77 1726 or PLX 4720 (1 μM) for another 2 hr (A) or treated with A77 1726 (100 μM) for the indicated time (B & C). Cells were harvested and analyzed for protein phosphorylation by specific antibodies as indicated. Protein loading was monitored by stripping membrane and re-probing with antibodies against non-phosphorylated proteins. […] A375 cells seeded in a 6-well plate were starved in DMEM medium containing 05% FBS for 2 hr and treated with the indicated concentration of A77 1726 in the absence or presence of uridine (200 μM). Phosphorylated and total proteins were analyzed by Western blot as described above.
(§2) A375 cells seeded in 6-well plates were starved in DMEM medium containing 0.5% FBS for 2 hr and then pre-treated with vehicle (0.1% dimethyl sulfoxide), LY294002 (10 μM) (A), PPP (1 μM) (B), or the inhibitors of the MAP kinase pathway (PLX4720, 1 μM; U0126, 10 μM; PD98059, 10 μM) (C) for 1 hr. Cells were then treated with A77 1726 (100 μM) or rapamycin (20 nM) as indicated for 2 hr. Cells were harvested and analyzed for protein phosphorylation by specific antibodies as indicated. Protein loading was monitored by stripping membrane and re-probing with antibodies against non-phosphorylated proteins.
(§3) Cells grown in 6-well plates were harvested and lysed in NP-40 lysis buffer (50 mM Tris-HCI (pH 8.0), 150 mM NaCl, 1% NP-40, 5 mM EDTA, 10 μg/ml aprotinin, 10 μg/ml leupeptin, and 1 mM phenylmethylsulfonyl fluoride). After incubation on ice for 30 min, the cell lysates were prepared by spinning down at 4° C., 15,000 rpm for 15 min. After electrophoresis and transfer to Immobolin membrane, proteins of interest were probed with their specific antibodies, followed by horseradish peroxidase-conjugated goat anti-rabbit IgG and SuperSignal Western Pico enhanced chemiluminoscence substrate (Pierce Chemical Co., Rockford, Ill.).
(§4) The PI-3 and MAP kinase pathways play an important role in cell proliferation, differentiation, and cell cycle progress. Multiple genes in these two pathways are frequently mutated and have a commanding role in driving tumorigenesis and tumor cell proliferation (2; 3). […] Here we tested whether A77 1726 affected the activation of MAP and PI-3 kinase pathways. A375 cells grown in 6-well plates were starved in the media containing 0.5% FBS for 2 hr and then treated with the indicated concentration of A77 1726. […] We next explored the effect of A77 1726 in phosphorylation of the molecules in the PI-3 kinase pathway.

[2] = test system: ribosomal protein S6^S235/S236 phosphorylation; experiment: Western blot of S6 phosphorylation in A375 cells
Procedure: as §1, §2, §3, §4

A375 cells = experiment: Cell cycle analysis (propidium iodine, flow cytometer); conditions: A375 cells, A77 1726 at 50 μM, 24 hr
Procedure: (A) Ability of uridine to relieve the cell cycle arrest in the S phase. A375 cells grown in 6-well plates were treated with the indicated concentration of A771726 with or without uridine (200 μM) for 24 hr. Cell cycle was analyzed in a flow cytometer as described in Materials and Methods. (B) Effect of the MAP kinase pathway inhibitors on A77 1726-mediated cell cycle arrest in the S phase. A375 cells were treated with A771726 (100 μM) in the absence or presence of 0.1% DMSO, […] (1 μM), U0126 (10 μM), PD98059 (10 for 24 hr. Single cell suspensions were prepared and analyzed for cell cycle in a flow cytometer. (C) Effect of the PI-3 kinase pathway inhibitors and their effect on A77 1726-mediated cell cycle arrest. A375 cells were treated with A77 1726 (100 μM), rapamycin (20 nM), and/or LY294002 (10 μM). After incubation for 24 hr, cells were harvested and analyzed for cell cycle progress.
Cells were grown in complete RPMI1640 medium with 10% fetal bovine serum in 6-well plates. Upon 60% confluence, the cells were treated with vehicle or with indicated concentrations of A77 1726 or various inhibitors as indicated for 24 hr. Cells were pulsed with 10 μM BrdU for 2 hr. Cells were harvested, denatured with 2N HCl for 5 min at room temperature followed by neutralization with 0.1M borate buffer (pH 8.5). After washing and blocking with normal mouse serum, the cells were stained with an Alexa Fluor 488-conjugated anti-BrdU monoclonal antibody (BD Bioscience), followed by analysis in a flow cytometer. Alexa Fluor 488-conjugated mouse IgG was included as a control. For cell cycle analysis, the cells were harvested and fixed with 2 ml cold 70% ethanol in PBS overnight at 4° C. Fixed cells were then washed 3 times with PBS, treated with RNaseA (100 μg/ml in 0.5 ml PBS). After incubation at room temperature for 30 min, cells were stained with 2.5 μl propidium iodine (10 mg/ml.) and immediately analyzed for DNA content in a flow cytometer.

cyclin D1 expression = experiment: Cyclin D1 expression in A375 cells; parameters: dose or concentration left out as unconfirmed; conditions: A375 cells, 24, 48 and 72 hours; time-dependent
Procedure: FIG. 13 illustrates inhibition of […]) expression by A 77 1726.
S6K 1 has been implicated in playing an important role in regulating expression of cyclin D1. Cyclin D1 expression was tested in the presence of A 77 1726. A375 cells were treated with […] A 77 1726 for 0, 24, 48 and 72 hours.

## C/C(O)=C(\C#N)C(=O)Nc1ccc(C(F)(F)F)cc1 [A77 1726]
[1]
  effect on AKT^S473 and S6K1^T389 phosphorylation: strongly induced
[2]; A375 cells, A77 1726 dose-dependent or 100 μM, rapamycin 20 nM, PPP 1 μM
  effect on S6^S235/S236 phosphorylation: inhibited
[2]; Homo sapiens, A-375, read-out: IC50 to inhibit S6 phosphorylation in cell culture
  IC50: 50 to 75 µM
A375 cells
  effect on cell cycle: sufficient to arrest cell cycle in the S phase
Cyclin D1 expression
  effect on cyclin D1 expression: inhibited
